From patent US20050136491A1, “Method of site specific labeling of proteins and uses therefor” (SmithKline Beecham Corporation, priority 1999, published 2005)
Square brackets hold non-standard residues; d marks the D form. Peptide text beside a SMILES is read from it. * marks the point of attachment. Tyr(3-NO2) = N[C@@H](Cc1ccc(O)c([N+](=O)[O-])c1)C(=O)O; Biotin = O=C1N[C@H]2[C@H](CS[C@H]2CCCCC(=O)*)N1

What was measured:
Factor XIIIa = biological target: T1, Factor XIIIa (Homo sapiens, UniProt P00488); assay: Factor XIII(a)-mediated labeling of ACP-Peptide 1 C-terminal fusion (C-tagged ACP); assay type: biochemical; conditions: for incorporation into ACP-Peptide 1 fusion: Mono Q ion exchange, 22 hr
T1 construct: purchased Enzyme Research Laboratories
T1 sequence (P00488 39-732 limits assumed): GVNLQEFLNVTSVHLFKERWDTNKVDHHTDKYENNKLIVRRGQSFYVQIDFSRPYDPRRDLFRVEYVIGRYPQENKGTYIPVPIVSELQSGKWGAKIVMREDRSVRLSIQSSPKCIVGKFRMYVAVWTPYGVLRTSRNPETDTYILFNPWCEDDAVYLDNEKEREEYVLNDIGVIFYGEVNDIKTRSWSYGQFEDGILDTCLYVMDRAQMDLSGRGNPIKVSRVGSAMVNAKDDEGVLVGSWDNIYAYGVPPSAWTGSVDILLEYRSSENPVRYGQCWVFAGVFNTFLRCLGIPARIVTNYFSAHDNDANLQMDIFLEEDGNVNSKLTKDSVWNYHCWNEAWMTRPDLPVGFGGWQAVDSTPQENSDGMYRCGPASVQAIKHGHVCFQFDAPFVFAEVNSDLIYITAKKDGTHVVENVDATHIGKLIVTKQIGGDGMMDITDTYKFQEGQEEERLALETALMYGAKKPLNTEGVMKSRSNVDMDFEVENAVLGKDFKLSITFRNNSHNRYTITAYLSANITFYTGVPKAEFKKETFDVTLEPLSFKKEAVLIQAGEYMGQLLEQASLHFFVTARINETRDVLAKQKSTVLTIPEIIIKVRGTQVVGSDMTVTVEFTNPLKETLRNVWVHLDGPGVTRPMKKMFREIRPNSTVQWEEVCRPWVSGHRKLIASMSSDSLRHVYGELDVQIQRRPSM
Procedure: A 270 units/ml reaction of Factor XIII was activated by 42 units/ml immobilized thrombin in Buffer 1:40 mM Tris-HCl, pH 8.3, 0.15 M NaCl. Cadaverine derivatives (rhodamine green and biotin) were used at 0.5 mM for each labeling reaction. The labeling reaction also contained 6 mM of DTT and 5 mM CaCl2. 0.5 mg/ml tagged ACP was used in the labeling reactions, against a 0.5 mg/ml native ACP control sample. Incubations were carried out at room temperature. Aliquots were taken from the mixtures at different time points and 50 mM EDTA was used to stop the labeling reaction (Factor XIII being Ca^2+ dependent). NuPAGE Tris-Glycine gels (4-12%) [Novex] were used to analyze the labeling results. The rhodamine green cadaverine labeling gel was observed under UV translumination, while the biotin cadaverine labeled protein was analyzed by Western blotting/streptavidin-HRP detection. […] No label was incorporated into the native ACP control under the conditions described above.
The ACP-peptide 1 C-terminal fusion was labeled with biotin cadaverine (Molecular Probes) in a reaction mixture of 0.5 mg/ml ACP-Peptide 1 fusion, 1.5 mM biotin-cadaverine and 504 units/ml Factor XIIIa. The efficiency of incorporation was determined by competitive ELISA to be 56%.
Novel biotinylation reagents (i.e. labeling compounds) were tested in an attempt to increase the yield. To this end, two biotinylated dipeptides, Biotin-Trp-Lys-OH and Biotin-NitroTyr-Lys-OH, were evaluated in a reaction mixture of 0.5 mg/ml ACP-Peptide 1 fusion, 1.5 mM biotin-cadaverine and 504 units/ml Factor XIIIa. Incorporation of the Biotin-Trp-Lys-OH dipeptide was shown by Mono Q ion exchange to be >85% (FIG. 2), in comparison to a 55% incorporation of the Biotin-NitroTyr-Lys dipeptide (FIG. 1). […] provides the C-tagged ACP standard. The identity of the modified peak was confirmed by addition of unmodified ACP at the end of the reaction (FIG. 4).

Factor XIII = biological target: T2, Factor XIII (Homo sapiens, UniProt P00488); assay: Factor XIII-mediated labeling of N-terminal Peptide 1-ACP fusion (N-tagged ACP); assay type: biochemical; conditions: analysed by N-terminal sequencing and mass mapping
T2 construct: purchased Enzyme Research Laboratories
T2 sequence (P00488 39-732 limits assumed): T1 sequence (P00488 39-732 limits assumed)

[1] = 0.5 mg/ml fusion, 504 units/ml Factor XIIIa

`NCCCC[C@H](NC(=O)[C@H](Cc1ccc(O)c([N+](=O)[O-])c1)NC(=O)CCCC[C@@H]1SC[C@@H]2NC(=O)N[C@@H]21)C(=O)O` [Biotin-NitroTyr-Lys, Biotin-NitroTyr-Lys-OH] (Biotin-[Tyr(3-NO2)]-Lys-OH) was tested. Which “incorporation into ACP-Peptide 1 fusion” value (Factor XIIIa; [1]) did it give?
Its value is 55%.

`NCCCC[C@H](NC(=O)[C@H](Cc1c[nH]c2ccccc12)NC(=O)CCCC[C@@H]1SC[C@@H]2NC(=O)N[C@@H]21)C(=O)O` [Biotin-Trp-Lys-OH] (Biotin-Trp-Lys-OH) was tested. Which “incorporation into ACP-Peptide 1 fusion” value (Factor XIIIa; [1]) did it give?
Its value is over 85%.

Which “labeling efficiency of N-terminal Peptide 1-ACP fusion” value (Factor XIII) does the source give for `CN(C)c1cccc2c(S(=O)(=O)NCCCCCN)cccc12` [dansyl cadaverine] here?
Its value is “greater than 90%”.

With biotin cadaverine as the compound, how does the “efficiency of incorporation into ACP-Peptide 1 C-terminal fusion” value (Factor XIIIa; competitive ELISA, 0.5 mg/ml fusion, 1.5 mM label, 504 units/ml Factor XIIIa) read?
The value was 56%.

How did the “efficiency of labeling of the ACP-Peptide 1 C-terminal fusion” value (Factor XIIIa) turn out when rhodamine green cadaverine was run?
The value was “greater than 90%”.

What about the “extent of labeling of C-tagged ACP” value (Factor XIIIa; non-optimized reaction, estimated by high-resolution ion exchange) of the same compound?
The value was “greater than 85%”.
